Like-named read-outs stand apart in the source and are kept apart here.
Tested on: test plant species
Assay: Post-emergent herbicidal activity test (greenhouse, foliar spray, visual growth reduction)
Format: in vivo
Settings: post-emergence, 336 h, 140 g ai/ha
Method: Post-emergent Test: Seeds or nutlets of the desired test plant species were planted in Sun Gro Metro-Mix® 360 planting mixture, which typically has a pH of 6.0 to 6.8 and an organic matter content of about 30 percent, in plastic pots with a surface area of 64 square centimeters. In some aspects, to ensure good germination and healthy plants, a fungicide treatment and/or other chemical or physical treatment was applied. The plants were grown for 7-21 d in a greenhouse with an approximate 15 h photoperiod which was maintained at 23-29° C. during the day and 22-28° C. during the night. Nutrients and water were added on a regular basis and supplemental lighting was provided with overhead metal halide 1000-Watt lamps as necessary. Plants were used for testing when they reached the first or second true leaf stage. A weighed amount, determined by the highest rate to be tested, of each test compound was placed in a 25 mL glass vial and was dissolved in 4 mL of a 97:3 v/v mixture of acetone and DMSO to obtain concentrated stock solutions. […] The concentrated stock solutions obtained were diluted with 20 mL of an aqueous mixture containing acetone, water, isopropyl alcohol, DMSO, […] crop oil concentrate, and X-77 surfactant in a 48.5:39:10:1.5:1.0:0.02 v/v ratio to obtain spray solutions containing the application rate. Compound requirements are based upon a 12 mL application volume at a rate of 187 liters per hectare (L/ha). Formulated compounds were applied to the plant material with an overhead Mandel track sprayer equipped with […] nozzles calibrated to deliver 187 L/ha over an application area of 0.64 square meters at a spray height of 18 inches (43 cm) above the average plant canopy height. Control plants were sprayed in the same manner with the solvent blank. The treated plants and control plants were placed in a greenhouse as described above and watered by subirrigation to prevent wash-off of the test compounds. After 14 d, the condition of the test plants as compared with that of the nontreated and control plants was determined visually and scored on a scale of 0 to 100 percent where 0 corresponds to no injury and 100 corresponds to complete control. In the reporting of the results, Table A: Percent Growth Reduction Conversion Table was used.

[1] = ALOMY: blackgrass (Alopecurus myosuroides), 14 days after application, read-out: Visual Growth Reduction (%) 14 Days After Application, ALOMY
[2] = AMARE: redroot pigweed (Amaranthus retroflexus), 14 days after application, read-out: Visual Growth Reduction (%) 14 Days After Application, AMARE
[3] = AVEFA: wild oat (Avena fatua), 14 days after application, read-out: Visual Growth Reduction (%) 14 Days After Application, AVEFA
[4] = CHEAL: lambsquarters (Chenopodium album), 14 days after application, read-out: Visual Growth Reduction (%) 14 Days After Application, CHEAL
[5] = CIRAR: canada thistle (Cirsium arvense), 14 days after application, read-out: Visual Growth Reduction (%) 14 Days After Application, CIRAR
[6] = CYPES: yellow nutsedge (Cyperus esculentus), 14 days after application, read-out: Visual Growth Reduction (%) 14 Days After Application, CYPES
[7] = DIGSA: crabgrass (Digitaria sanguinalis), 14 days after application, read-out: Visual Growth Reduction (%) 14 Days After Application, DIGSA
[8] = ECHCG: barnyardgrass (Echinochloa crus-galli), 14 days after application, read-out: Visual Growth Reduction (%) 14 Days After Application, ECHCG
[9] = IPOHE: ivy-leaf morning glory (Ipomoea hederacea), 14 days after application, read-out: Visual Growth Reduction (%) 14 Days After Application, IPOHE
[10] = KCHSC: kochia (Bassia scoparia), 14 days after application, read-out: Visual Growth Reduction (%) 14 Days After Application, KCHSC
[11] = ORYSA: rice (Oryza sativa), 14 days after application, read-out: Visual Growth Reduction (%) 14 Days After Application, ORYSA
[12] = SETFA: giant foxtail (Setaria faberi), 14 days after application, read-out: Visual Growth Reduction (%) 14 Days After Application, SETFA
[13] = SORVU: grain sorghum (Sorghum vulgare), 14 days after application, read-out: Visual Growth Reduction (%) 14 Days After Application, SORVU
[14] = STEME: common chickweed (Stellaria media), 14 days after application, read-out: Visual Growth Reduction (%) 14 Days After Application, STEME
[15] = TRZAS: wheat, spring (Triticum aestivum), 14 days after application, read-out: Visual Growth Reduction (%) 14 Days After Application, TRZAS
[16] = blackgrass (Alopecurus myosuroides), 14 Days After Application, read-out: Visual Growth Reduction (%) ALOMY
[17] = canada thistle (Cirsium arvense), 14 Days After Application, read-out: Visual Growth Reduction (%) CIRAR
[18] = crabgrass (Digitaria sanguinalis), 14 Days After Application, read-out: Visual Growth Reduction (%) DIGSA
[19] = lambsquarters (Chenopodium album), 14 Days After Application, read-out: Visual Growth Reduction (%) CHEAL
[20] = redroot pigweed (Amaranthus retroflexus), 14 Days After Application, read-out: Visual Growth Reduction (%) AMARE
[21] = wild oat (Avena fatua), 14 Days After Application, read-out: Visual Growth Reduction (%) AVEFA
[22] = yellow nutsedge (Cyperus esculentus), 14 Days After Application, read-out: Visual Growth Reduction (%) CYPES

SMILES | pest or weed control at 140 g/ha [1] | pest or weed control at 140 g/ha [2] | pest or weed control at 140 g/ha [3] | pest or weed control at 140 g/ha [4] | pest or weed control at 140 g/ha [5] | pest or weed control at 140 g/ha [6] | pest or weed control at 140 g/ha [7] | pest or weed control at 140 g/ha [8] | pest or weed control at 140 g/ha [9] | pest or weed control at 140 g/ha [10] | pest or weed control at 140 g/ha [11] | pest or weed control at 140 g/ha [12] | pest or weed control at 140 g/ha [13] | pest or weed control at 140 g/ha [14] | pest or weed control at 140 g/ha [15] | pest or weed control at 140 g/ha [16] | pest or weed control at 140 g/ha [17] | pest or weed control at 140 g/ha [18] | pest or weed control at 140 g/ha [19] | pest or weed control at 140 g/ha [20] | also measured
O=C(OCc1ccccn1)c1nc(-c2ccc(C(F)(F)F)cc2Cl)ccc1Cl [F54, Pyridin-2-ylmethyl 3-chloro-6-(2-chloro-4-(trifluoromethyl)phenyl)picolinate] | 0 to 29% | 0 to 29% | 0 to 29% | 0 to 29% | 0 to 29% | 0 to 29% | 0 to 29% | 75 to 84% | 95 to 100% | 95 to 100% | 0 to 29% | 85 to 94% | 95 to 100% | 0 to 29% | 85 to 94% | – | – | – | – | – | –
COC(=O)c1nc(-c2ccc3c(c2)OC(F)(F)O3)c(F)cc1Cl [F258, Methyl 3-chloro-6-(2,2-difluorobenzo[d][1,3]dioxol-5-yl)-5-fluoropicolinate] | – | – | – | – | – | – | – | 0 to 29% | 95 to 100% | 0 to 29% | 0 to 29% | 0 to 29% | 75 to 84% | 0 to 29% | 0 to 29% | 0 to 29% | 0 to 29% | 85 to 94% | 75 to 84% | 60 to 74% | pest or weed control at 140 g/ha [21]: 0 to 29%; pest or weed control at 140 g/ha [22]: 30 to 44%
COC(=O)c1nc(-c2ccc(C(F)(F)F)nc2)c(F)cc1Cl [F92, methyl 5-chloro-3-fluoro-6′-(trifluoromethyl)-[2,3′-bipyridine]-6-carboxylate] | 0 to 29% | 0 to 29% | 0 to 29% | 0 to 29% | 0 to 29% | 0 to 29% | 30 to 44% | 0 to 29% | 30 to 44% | 0 to 29% | 0 to 29% | 0 to 29% | 0 to 29% | 0 to 29% | 0 to 29% | – | – | – | – | – | –
O=C(O)c1nc(-c2c(Cl)cc(C(F)(F)F)cc2[N+](=O)[O-])ccc1Cl [F224, 3-Chloro-6-(2-chloro-6-nitro-4-(trifluoromethyl)phenyl)picolinic acid] | – | – | – | – | – | – | – | 0 to 29% | 95 to 100% | 45 to 59% | 45 to 59% | 45 to 59% | 60 to 74% | 0 to 29% | 0 to 29% | 0 to 29% | 45 to 59% | 75 to 84% | 95 to 100% | 85 to 94% | pest or weed control at 140 g/ha [21]: 0 to 29%; pest or weed control at 140 g/ha [22]: 0 to 29%
C#Cc1cc(C(F)(F)F)cc(Cl)c1-c1ccc(Cl)c(C(=O)OC)n1 [F239, methyl 3-chloro-6-(2-chloro-6-ethynyl-4-(trifluoromethyl)phenyl)picolinate] | – | – | – | – | – | – | – | 0 to 29% | 75 to 84% | 0 to 29% | 0 to 29% | 0 to 29% | 60 to 74% | 0 to 29% | 0 to 29% | 0 to 29% | 0 to 29% | 0 to 29% | 30 to 44% | 0 to 29% | pest or weed control at 140 g/ha [21]: 0 to 29%; pest or weed control at 140 g/ha [22]: 0 to 29%
O=C(O)c1nc(-c2cc3c(cc2Cl)OC(F)(F)O3)c(Cl)cc1Cl [F182, 3,5-Dichloro-6-(6-chloro-2,2-difluorobenzo[d][1,3]dioxol-5-yl)picolinic acid] | 0 to 29% | 75 to 84% | 0 to 29% | 85 to 94% | 0 to 29% | 30 to 44% | 60 to 74% | 0 to 29% | 95 to 100% | 45 to 59% | 0 to 29% | 60 to 74% | 85 to 94% | 0 to 29% | 0 to 29% | – | – | – | – | – | –
COC(=O)c1nc(-c2cc(F)c3c(c2)OC(F)(F)O3)c(F)cc1Cl [F240, Methyl 3-chloro-5-fluoro-6-(2,2,7-trifluorobenzo[d][1,3]dioxol-5-yl)picolinate] | – | – | – | – | – | – | – | 0 to 29% | 95 to 100% | 0 to 29% | 0 to 29% | 0 to 29% | 75 to 84% | 0 to 29% | 0 to 29% | 0 to 29% | 0 to 29% | 95 to 100% | 60 to 74% | 30 to 44% | pest or weed control at 140 g/ha [21]: 0 to 29%; pest or weed control at 140 g/ha [22]: 0 to 29%
COC(=O)c1nc(-c2cc(C)c(C)cc2Cl)ccc1Cl [F49, Methyl 3-chloro-6-(2-chloro-4,5-dimethylphenyl) picolinate] | 0 to 29% | 30 to 44% | 0 to 29% | 45 to 59% | 0 to 29% | 0 to 29% | 0 to 29% | 0 to 29% | 0 to 29% | 0 to 29% | 0 to 29% | 0 to 29% | 0 to 29% | 0 to 29% | 0 to 29% | – | – | – | – | – | –

From patent US20230017045A1, “PYRIDINE AND PYRIMIDINE CARBOXYLATE HERBICIDES AND METHODS OF USE THEREOF” (Dow AgroSciences LLC, priority 2017, published 2023)
